Data reported in ChEMBL document CHEMBL1201862, “PubChem BioAssay data set” (2004).
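A five-concentration, 48-hour dose response in 96-well plates underlies each endpoint, interpolated linearly between surrounding concentrations. Here, GI50 denotes the concentration required for 50% inhibition of growth.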 Activity calls are given as the source filed them. No stated cut-off is given here; in the data, active = GI50 up to about 1.1 µM and inactive = higher.

How the values were obtained:
Assay in all cases: NCI-60 cell line screen, 48 h
A498 = tested on: A498
SF-268 = tested on: SF-268
UACC-257 = tested on: UACC-257
OVCAR-3 = tested on: OVCAR-3
HCC 2998 = tested on: HCC 2998
SNB-19 = tested on: SNB-19
Malme-3M = tested on: Malme-3M
UO-31 = tested on: UO-31
KM12 = tested on: KM12
OVCAR-5 = tested on: OVCAR-5
M14 = tested on: M14
SK-MEL-5 = tested on: SK-MEL-5
HCT-116 = tested on: HCT-116
U-251 = tested on: U-251
SNB-75 = tested on: SNB-75
UACC-62 = tested on: UACC-62
HCT-15 = tested on: HCT-15

Compound | GI50 (A498) | GI50 (SF-268) | GI50 (UACC-257) | GI50 (OVCAR-3) | GI50 (HCC 2998) | GI50 (SNB-19) | GI50 (Malme-3M) | GI50 (UO-31) | GI50 (KM12) | GI50 (OVCAR-5) | GI50 (M14) | GI50 (SK-MEL-5) | GI50 (HCT-116) | GI50 (U-251) | GI50 (SNB-75) | GI50 (UACC-62) | GI50 (HCT-15) [µM]
COc1ccccc1NC(=O)C1=C(C)NC(C)=C(C(=O)Nc2ccccc2OC)C1c1ccc(N(C)C)cc1 | 32.8 µM (inactive) | 24.5 µM (inactive) | 27.9 µM (inactive) | 19.1 µM (inactive) | 14.5 µM (inactive) | 55.8 µM (inactive) | 36.1 µM (inactive) | 36 µM (inactive) | 21.6 µM (inactive) | 39.2 µM (inactive) | 22.5 µM (inactive) | 30.8 µM (inactive) | 25.4 µM (inactive) | 30.4 µM (inactive) | 30.8 µM (inactive) |  | 
O=P(NCCCO)(OCc1ccccc1)N(CCCl)CCCl (stereo unspecified) | > 100 µM (inactive) | > 100 µM (inactive) | > 100 µM (inactive) | > 100 µM (inactive) | > 100 µM (inactive) | > 100 µM (inactive) | > 100 µM (inactive) | > 100 µM (inactive) | > 100 µM (inactive) | > 100 µM (inactive) |  | > 100 µM (inactive) | > 100 µM (inactive) | > 100 µM (inactive) | > 100 µM (inactive) | > 100 µM (inactive) | > 100
COC(=O)C(=Cc1cc(OC)c(OC)c(OC)c1-c1cc2c(cc1C(C)=O)OCO2)C(=O)OC |  | 57.1 µM (inactive) | 52 µM (inactive) | 26.5 µM (inactive) | 40.3 µM (inactive) | 39 µM (inactive) | 38.7 µM (inactive) |  | 32.2 µM (inactive) | 43 µM (inactive) |  | 32.7 µM (inactive) | 32.2 µM (inactive) | 37.2 µM (inactive) |  | 32.6 µM (inactive) | 24.2
CC(=O)NNc1nc(C)c(C(=O)NNC(=O)C(=O)Nc2c(C)cccc2C(C)C)s1 | 51.4 µM (inactive) | 59.6 µM (inactive) | 64.3 µM (inactive) | 36.9 µM (inactive) | > 100 µM (inactive) | > 100 µM (inactive) | 59.3 µM (inactive) | > 100 µM (inactive) | 95.7 µM (inactive) | > 100 µM (inactive) | > 100 µM (inactive) | 95.1 µM (inactive) | 84.1 µM (inactive) | 5.97 µM (inactive) |  | 59.7 µM (inactive) | 60.3
NC(=O)N/N=C/C(/C=N/NC(N)=O)[N+](=O)[O-] | > 100 µM (inactive) | > 100 µM (inactive) | > 100 µM (inactive) | > 100 µM (inactive) |  | > 100 µM (inactive) | > 100 µM (inactive) |  | > 100 µM (inactive) | > 100 µM (inactive) | > 100 µM (inactive) |  | > 100 µM (inactive) |  | > 100 µM (inactive) | > 100 µM (inactive) | 
CC1(c2ccc[n+](Cc3ccccc3)c2)OCCO1 | > 100 µM (inactive) |  | > 100 µM (inactive) | > 100 µM (inactive) | > 100 µM (inactive) | > 100 µM (inactive) | > 100 µM (inactive) | > 100 µM (inactive) | > 100 µM (inactive) | > 100 µM (inactive) | > 100 µM (inactive) | > 100 µM (inactive) | > 100 µM (inactive) | > 100 µM (inactive) | > 100 µM (inactive) | > 100 µM (inactive) | > 100
CCOC(=O)Oc1ccc2[nH]c3c(C)cc(N)c(C)c3c2c1 |  | > 100 µM (inactive) | > 100 µM (inactive) | > 100 µM (inactive) | > 100 µM (inactive) | > 100 µM (inactive) | 87.7 µM (inactive) | > 100 µM (inactive) | 68.4 µM (inactive) | > 100 µM (inactive) | 98.4 µM (inactive) | > 100 µM (inactive) | > 100 µM (inactive) |  | > 100 µM (inactive) |  | > 100
CCCN(CCCC(NC(C)=O)C(=O)NCc1ccccc1)C(=O)NCCCl (stereo unspecified) |  | > 100 µM (inactive) | > 100 µM (inactive) | > 100 µM (inactive) | > 100 µM (inactive) | > 100 µM (inactive) | > 100 µM (inactive) | > 100 µM (inactive) | > 100 µM (inactive) |  | > 100 µM (inactive) |  | > 100 µM (inactive) | > 100 µM (inactive) | > 100 µM (inactive) | > 100 µM (inactive) | > 100
COC(=O)C1=CO[C@@H](OC2CC(CO)C(O)C(O)C2O)[C@@H]2[C@@H](C)[C@@H](OC(=O)/C=C/c3ccccc3)[C@@H](O)[C@H]12.COC(=O)C1=CO[C@@H](OC2CC(CO)C(O)C(O)C2O)[C@@H]2[C@@H](C)[C@@H](OC(=O)c3ccccc3)[C@@H](O)[C@H]12 (stereo partly specified) | > 100 µM (inactive) | > 100 µM (inactive) | > 100 µM (inactive) | > 100 µM (inactive) | > 100 µM (inactive) | 10 µM (inactive) | > 100 µM (inactive) | > 100 µM (inactive) | > 100 µM (inactive) | > 100 µM (inactive) | > 100 µM (inactive) | > 100 µM (inactive) | > 100 µM (inactive) | > 100 µM (inactive) | > 100 µM (inactive) | > 100 µM (inactive) | 
CCCNC1=C(C(=O)OCC)C(=O)CO1 | > 100 µM (inactive) | > 100 µM (inactive) | > 100 µM (inactive) | > 100 µM (inactive) | > 100 µM (inactive) | > 100 µM (inactive) | > 100 µM (inactive) | > 100 µM (inactive) |  | > 100 µM (inactive) | > 100 µM (inactive) | > 100 µM (inactive) | > 100 µM (inactive) | > 100 µM (inactive) | > 100 µM (inactive) | > 100 µM (inactive) | > 100
O=C1NC(=S)NC(=O)C1=CC1CC1 | > 100 µM (inactive) | > 100 µM (inactive) | > 100 µM (inactive) |  | > 100 µM (inactive) | > 100 µM (inactive) | > 100 µM (inactive) | > 100 µM (inactive) | > 100 µM (inactive) | > 100 µM (inactive) | > 100 µM (inactive) | > 100 µM (inactive) | > 100 µM (inactive) | > 100 µM (inactive) | 46.3 µM (inactive) | > 100 µM (inactive) | > 100
Cc1ccc(C(=O)C(C)N)cc1C (stereo unspecified) | > 100 µM (inactive) | > 100 µM (inactive) | > 100 µM (inactive) | > 100 µM (inactive) | > 100 µM (inactive) | > 100 µM (inactive) | > 100 µM (inactive) | > 100 µM (inactive) | > 100 µM (inactive) |  | > 100 µM (inactive) | > 100 µM (inactive) | > 100 µM (inactive) | > 100 µM (inactive) | > 100 µM (inactive) | > 100 µM (inactive) | 
COCC1N=C(c2cc(OC)c(OC)c(OC)c2-c2cc3c(cc2[C@H](C)O)OCO3)O[C@H]1c1ccccc1 (stereo partly specified) |  |  |  | 47.4 µM (inactive) | > 100 µM (inactive) | 61 µM (inactive) |  | 58.6 µM (inactive) | 52.6 µM (inactive) |  | 72.3 µM (inactive) | 42.4 µM (inactive) | 44.6 µM (inactive) | 65.2 µM (inactive) | 49.2 µM (inactive) | > 100 µM (inactive) | 56.9
